In data set [1] the test system is DENV-2-eGFP reporter virus. Kind of data set: Cell-based anti-DENV-2 screening with DENV-2-eGFP reporter virus in BE(2)C cells. As to conditions: Dengue virus, DENV2, BE(2)-C, 24 h, read-out: DENV-2 infection %. Also on record: species or system type 2 dengue virus.
In another data set the test system is BE(2)C cells. Kind of data set: XTT cell proliferation assay. It is filed as cell-based. Particulars: Homo sapiens, 6.25 μM compound, compared to solvent control. Here is the method: The cytotoxicity of candidate compounds to BE(2)C cells was evaluated by use of the cytotoxicity detection kit (LDH) (Roche), cell proliferation kit (XTT) (Roche), and Trypan blue cell counting assay. Briefly, cells were treated overnight with the candidate compounds at the indicated doses and subjected to the three assays. For LDH and XTT assays, light absorbance of the sample at 490 nm was determined by using an enzyme-linked immunosorbent assay (ELISA) reader (Molecular Devices). For Trypan blue cell counting assay, the number of viable cells was determined by use of haemocytometer. Data was normalized to solvent control and presented as a percentage.

The target in another data set is T1, purified human CaMKII (Homo sapiens, UniProt Q9UQM7).
T1 construct: MBL Internationl Corp (assay kit)
Briefly: CaMKII biochemical assay (CycLex CaM kinase II Assay Kit). Particulars: syntide-2 substrate, Ca2+, calmodulin, Mg2+, ATP; normalized to solvent control. Here is the method:
A commercial CaMKII inhibitor, KN-62 (Selleckchem, S7422) was used as a positive control. Kinase reaction buffer without Ca^2+ was used as a negative control. The assay wells of the microtiter plate were then incubated with HRP-conjugated-anti-phospho-syntide-2 antibody, followed by addition of syntide-2. The phosphorylation reaction was stopped after incubation at room temperature for 15 minutes. Sample absorbance at 450 nm was determined by use of an ELISA reader (Molecular Devices). Data was normalized to solvent control and presented as a percentage.

For another data set, the system named is ZIKV. Kind of data set: Virus binding/entry assays, ZIKV on BE(2)C cells.
For a further data set, the system named is ZIKV PRVABC59 strain. Kind of data set: Animal study, ZIKV-infected Stat1-deficient mice. It is filed as in vivo. Particulars: for median survival time (T50): 8 mg/kg of body weight/day oral. How it is done:
(§1) The mouse experiments were approved by the Academia Sinica Institutional Animal Care and Use Committee and performed in accordance with the guidelines. Infection was performed in mice under isoflurane anesthesia to minimize animal suffering. The DENV-2 New Guinea C strain serially passaged in mouse brain (NGC-N), kindly provided by Dr. Ching-Juh Lai (National Institutes of Health, USA) and ZIKV PRVABC59 strain were used in the animal study. Groups of 6-week-old Stat1^−/− mice were intravenously infected in the tail with 1×10^5 PFU of DENV-2 per mouse or subcutaneously infected in the footpad with 5×10^4 PFU of ZIKV per mouse. […] The mice were checked daily for severe symptoms including limb paralysis. Euthanasia of mice with severe limb paralysis was performed as the endpoint of animal survival. Mice survival was presented as percentage of survival. Mouse serum samples were collected on day 3 after infection by phlebotomy from facial vein, and the virus load was determined by plaque-forming assay.
(§2) Data are presented as mean±standard deviation and were compared by ANOVA and Bonferroni post-hoc test unless otherwise specified. Statistical significance was set at P values of <0.05 or <0.01. A survival curve was descriptively analyzed by use of SigmaPlot v10.0 (Systat software). The median survival time (T50) and P values, based on log-rank test, were determined by use of Prism v5.0 (GraphPad software). For Western blotting, the band intensity was quantified by use of ImageJ software (National Institutes of Health).

The test system of a further data set is DENV-2 NGC-N strain. Kind of data set: Animal study, DENV-2-infected Stat1-deficient mice. The format is in vivo. Particulars: for overall survival: 6-day treatment. Here is the method:
as §1, §2

The subject of another data set is DENV-2 PL046 strain. Briefly: Antiviral assay, wild type DENV-2 in BE(2)C cells (IFA, Western blotting, plaque-forming assay). Particulars: three hours of treatment during viral adsorption (0-3 hpi), MOI 1, Western blot. It is filed as cell-based, type 2 dengue virus.
For another data set, the system named is DENV-2. Briefly: Virus binding/entry assays, DENV-2 on BE(2)C cells. It is filed as cell-based, type 2 dengue virus.
The mark [2] stands for this setting: 37° C. for 60 minutes after adsorption, dose-dependent.
Setting [3] is: adsorption at 4° C. for 90 minutes.
Where [4] appears, read: immediate treatment, 4 mg/kg of body weight/day oral.
[5] abbreviates: serum on day 3 after infection, plaque-forming assay, dose-dependent.
[6] abbreviates: 8-hours-delay treatment, 4 mg/kg of body weight/day oral.
The mark [7] stands for this setting: immediate treatment, 2 mg/kg of body weight/day oral.

T1 sequence (Q9UQM7 with tags, fused parts or gaps): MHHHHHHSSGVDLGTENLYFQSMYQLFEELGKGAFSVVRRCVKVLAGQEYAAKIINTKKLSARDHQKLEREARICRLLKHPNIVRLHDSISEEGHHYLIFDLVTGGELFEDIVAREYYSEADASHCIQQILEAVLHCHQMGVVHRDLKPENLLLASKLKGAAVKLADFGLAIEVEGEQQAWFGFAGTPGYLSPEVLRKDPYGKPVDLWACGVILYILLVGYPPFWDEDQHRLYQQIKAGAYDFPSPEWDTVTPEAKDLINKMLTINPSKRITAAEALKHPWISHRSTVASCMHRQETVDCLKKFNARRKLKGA

Turning to `COc1ccc(S(=O)(=O)N(CCCC(=O)c2ccc(F)cc2)c2ccccc2)cc1` [Compound 1, N-(4-(4-fluorophenyl)-4-oxobutyl)-4-methoxy-N-phenylbenzenesulfonamide], the melting point fell in the range of 93 to 94 °C. In [1], the activity at 3.125 µM came to 39.3%. Further, the viability at 6.25 µM with BE(2)C cells is 56.1%.
Consider `COc1ccc(S(=O)(=O)N(CCCC(O)c2ccc(F)cc2)c2ccccc2)cc1` (centres unmarked) [Compound 2, N-(4-(4-fluorophenyl)-4-hydroxybutyl)-4-methoxy-N-phenylbenzenesulfonamide], for which, in [1], the activity at 3.125 µM was found to be 48.5%. Further, in the data set on BE(2)C cells, the viability at 6.25 µM is 76.3%.
With `COc1ccc(S(=O)(=O)NCCCC(=O)c2ccc(F)cc2)cc1` [Compound 3], the melting point lay in the range of 84 to 85 °C.
Consider `COc1ccc(S(=O)(=O)N(C)CCCC(=O)c2ccc(F)cc2)cc1` [Compound 4, N-(4-(4-fluorophenyl)-4-oxobutyl)-4-methoxy-N-methylbenzenesulfonamide], for which the melting point fell in the range of 89 to 90 °C. The activity at 3.125 µM in [1] was 101%. Also, in the data set with BE(2)C cells, the viability at 6.25 µM amounted to 106%.
With `COc1ccc(S(=O)(=O)N(CCCC(C)=O)c2ccccc2)cc1` [Compound 5, 4-methoxy-N-(4-oxopentyl)-N-phenylbenzenesulfonamide], the melting point was in the range of 81 to 82 °C. Besides, the activity at 3.125 µM in data set [1] is 101%. In the data set with BE(2)C cells, the viability at 6.25 µM was found to be 106%.
The like results for `COc1ccc(S(=O)(=O)N(CCCC(=O)C2CCCCC2)c2ccccc2)cc1` [Compound 6, N-(4-cyclohexyl-4-oxobutyl)-4-methoxy-N-phenylbenzenesulfonamide] were, in that order, 81 to 82 °C, 63.3% and 107%.
`COc1ccc(S(=O)(=O)N(CCCC(=O)C2CCC2)c2ccccc2)cc1` [Compound 7, N-(4-cyclobutyl-4-oxobutyl)-4-methoxy-N-phenylbenzenesulfonamide] showed an IC50 on purified human CaMKII of about 600 nM. Also, the activity at 3.125 µM in [1] was determined as 33%. In addition, the viability at 6.25 µM in the data set on BE(2)C cells turned out to be 93.9%.
In turn, `COc1ccc(S(=O)(=O)N(CCCC(=O)C2CCCC2)c2ccccc2)cc1` [Compound 8, N-(4-cyclopentyl-4-oxobutyl)-4-methoxy-N-phenylbenzenesulfonamide] yielded a melting point of 89 to 90 °C. The activity at 3.125 µM in data set [1] was 25.1%.
As to `COc1ccc(S(=O)(=O)N(CCCC(=O)C2CCCCCC2)c2ccccc2)cc1` [Compound 9, N-(4-cycloheptyl-4-oxobutyl)-4-methoxy-N-phenylbenzenesulfonamide], in the data set with ZIKV (setting [2]), the “level of ZIKV entry” value is on record as “significantly reduced”. In the data set with ZIKV (MOI 10, 90 minutes at room temperature), the “level of ZIKV binding/entry” value was “significantly reduced”. The “ZIKV binding to cells” value with ZIKV (setting [3]) is listed as “no effect”. Besides, the overall survival entry is “minor effect” in the data set with ZIKV PRVABC59 strain (8-hours-delay treatment); “did not improve” in the data set with ZIKV PRVABC59 strain (setting [4]); 60% with DENV-2 NGC-N strain (setting [4]); 60% with DENV-2 NGC-N strain (immediate treatment, 8 mg/kg of body weight/day oral). Also, the “median survival time (T50)” value is 10 days in the data set with ZIKV PRVABC59 strain (8-hours-delay treatment); 11 days in the data set with ZIKV PRVABC59 strain (immediate treatment); 14 days in the data set with DENV-2 NGC-N strain (8-hours-delay treatment, 2 mg/kg of body weight/day oral); 22 days in the data set with DENV-2 NGC-N strain (setting [6]); 15 days with DENV-2 NGC-N strain (setting [7]). Besides, the viral load entry in the data set with ZIKV PRVABC59 strain (setting [5]) and with DENV-2 NGC-N strain (setting [5]) was “significantly reduced” each time. For the same molecule, the activity at 3.125 µM in data set [1] stood at 9.6%. Moreover, the “mice protected from mortality” value in the data set on DENV-2 NGC-N strain (setting [6]) is given as 40%. Besides, the overall animal survival entry in the data set on DENV-2 NGC-N strain (setting [7]) is recorded as “minor effect”. Further, in the data set with DENV-2 PL046 strain, the viral-NS3 expression entry is listed as “dose-dependently reduced”. The “level of DENV-2 entry” value with DENV-2 (setting [2]) was “significantly reduced”. In the data set with DENV-2 (setting [3]), the “DENV-2 binding to cells” value is “no effect”.
For `COc1ccc(S(=O)(=O)N(CCCC(=O)C2C3CC4CC(C3)CC2C4)c2ccccc2)cc1` (centres unmarked) [Compound 10, N-(4-(adamantan-2-yl)-4-oxobutyl)-4-methoxy-N-phenylbenzenesulfonamide], the melting point was 117 to 118 °C. The activity at 3.125 µM in data set [1] amounted to 51.1%. Moreover, in the data set on BE(2)C cells, the viability at 6.25 µM came to 96.7%.
Taken in the same sequence, the figures for `O=C(CCCN(c1ccccc1)S(=O)(=O)c1ccc(OC(F)(F)F)cc1)C1CCCC1` [Compound 11, N-(4-cyclopentyl-4-oxobutyl)-N-phenyl-4-(trifluoromethoxy)benzenesulfonamide] were 69 to 70 °C, 118% and 92.4%.
Taken in the same sequence, the figures for `O=C(CCCN(c1ccccc1)S(=O)(=O)c1ccc(Oc2ccccc2)cc1)C1CCCCCC1` [Compound 12, N-(4-cycloheptyl-4-oxobutyl)-4-phenoxy-N-phenylbenzenesulfonamide] were 127 to 128 °C, 73.4% and 95.5%.
In the case of `Cc1ccc(S(=O)(=O)N(CCCC(=O)C2CCCCCC2)c2ccccc2)cc1` [Compound 13, N-(4-cycloheptyl-4-oxobutyl)-4-methyl-N-phenylbenzenesulfonamide], in data set [1], the activity at 3.125 µM worked out at 76.9%. In the data set on BE(2)C cells, the viability at 6.25 µM turned out to be 99.5%.
The like results for `COc1ccc(S(=O)(=O)N(CCCC(=O)C2CCCCCC2)C2CCCCC2)cc1` [Compound 14, N-(4-cycloheptyl-4-oxobutyl)-N-cyclohexyl-4-methoxybenzenesulfonamide] were, in that order, 65.7% and 97.5%.
Molecule `COc1ccc(S(=O)(=O)N(CCCC(=O)C2CCCCCC2)c2ccc3c(c2)CCCC3)cc1` [Compound 15, N-(4-cycloheptyl-4-oxobutyl)-4-methoxy-N-(5,6,7,8-tetrahydronaphthalen-2-yl)-benzenesulfonamide] came in with a melting point of 111 to 112 °C. In data set [1], the activity at 3.125 µM worked out at 21.5%. Further, the viability at 6.25 µM in the data set on BE(2)C cells was 104%.
`COc1ccc(S(=O)(=O)N(CCCC(=O)C2CCCCCC2)c2ccc(C3CCCCC3)cc2)cc1` [Compound 16, N-(4-cycloheptyl-4-oxobutyl)-N-(4-cyclohexylphenyl)-4-methoxybenzenesulfonamide]: the melting point fell in the range of 103 to 104 °C. For the same molecule, the activity at 3.125 µM in data set [1] stood at 13.8%.
In turn, `CN([C@@H](Cc1ccc(OS(=O)(=O)c2cccc3cnccc23)cc1)C(=O)N1CCN(c2ccccc2)CC1)S(=O)(=O)c1cccc2cnccc12` [KN-62, reference compound] registered an IC50 on purified human CaMKII of about 1030 nM.

Source of the values: patent US10494334B2, “Compounds to inhibit calcium/calmodulin dependent protein kinase II and applications thereof” (priority 2018, dated 2019).
